# Read-outs that look alike come from different tables or passages of the source.
# Key:
# [1] = Effect of naltrexone on alcohol stimulation (BAES); format: in vivo, human; conditions: calculated from Ray et al. (Arch Gen Psychiatry 2007)
# Protocol: No human studies have examined perampanel in psychiatric/substance-using populations. We calculated an effect size for naltrexone based on Ray et al. (Arch Gen Psychiatry. 2007; 64(9):1069-77), for the effect of naltrexone on stimulation (BAES) and will extrapolate this effect to perampanel. Based on this calculated effect size (d) of 0.45 (e.g. a moderate effect size), we should be able to show a significant difference between perampanel and placebo groups using a two-sided, […] t-test, with alpha=0.05 and power (1-Beta) of 0.80 with n=21 subjects in each experimental group (total N=42). We will recruit and enter N=50 subjects, in order to complete at least 42.
# AMPA receptor [2] = conditions: in vitro, rat hippocampal slices; cited from earlier work
# [3] = in vivo; cited from earlier work
# [4] = cited from earlier work
# [5] = in vivo; cited from earlier work; remark: listed apart in the source
# CYP3A4 = CYP3A4 (Homo sapiens, UniProt P08684); conditions: cited from earlier work
# [6] = cited from earlier work; remark: listed apart in the source
# AMPA receptor [7] = conditions: animal spinal neurons; cited from earlier work
# [8] = cited from earlier work; remark: listed apart in the source
# Sequence of CYP3A4 (P08684 whole entry): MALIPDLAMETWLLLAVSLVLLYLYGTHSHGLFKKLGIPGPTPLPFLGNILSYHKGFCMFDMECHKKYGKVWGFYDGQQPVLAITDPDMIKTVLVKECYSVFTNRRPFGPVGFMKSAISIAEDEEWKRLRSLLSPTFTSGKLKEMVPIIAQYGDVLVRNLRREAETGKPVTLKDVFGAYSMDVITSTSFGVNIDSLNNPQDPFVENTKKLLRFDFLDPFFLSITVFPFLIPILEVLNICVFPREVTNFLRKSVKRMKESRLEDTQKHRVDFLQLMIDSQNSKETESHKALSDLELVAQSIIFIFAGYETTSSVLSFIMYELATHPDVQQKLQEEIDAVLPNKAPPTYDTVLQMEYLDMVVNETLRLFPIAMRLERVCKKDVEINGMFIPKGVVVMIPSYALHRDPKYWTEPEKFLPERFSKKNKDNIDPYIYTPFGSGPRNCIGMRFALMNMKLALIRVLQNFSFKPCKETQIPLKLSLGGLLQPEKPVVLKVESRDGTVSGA
SMILES,effect size (d) on stimulation (BAES) [1],selectivity of action on the AMPA receptor (AMPA receptor [2]),bioavailability [3],pharmacokinetic linearity [3],medication related adverse events/side effects ([4]; chronic dosing in epilepsy trials),"tolerability ([4]; human subjects, doses of 8 mg or 12 mg daily)",blood-brain-barrier penetration [5],metabolising enzyme (CYP3A4),elimination half-life T1/2 ([6]; healthy volunteers),absorption in the gastrointestinal system ([6]; orally active),time to peak plasma concentration (Tmax) ([6]; post-ingestion),selectivity of action on the AMPA receptor (AMPA receptor [7]),"maximum tolerated single oral dose ([8]; healthy human subjects, single oral dose) [mg]","medication related adverse events/side effects ([8]; human, in vivo)"
O=C1CC[C@@]2(O)[C@H]3Cc4ccc(O)c5c4[C@@]2(CCN3CC2CC2)[C@H]1O5 [naltrexone],0.45,,,,,,,,,,,,,
N#Cc1ccccc1-c1cc(-c2ccccn2)cn(-c2ccccc2)c1=O [perampanel],,selective action,about 100%,linear pharmacokinetics,"dizziness, somnolence, irritability, headache, fall, and ataxia",well tolerated,effectively penetrates the blood-brain-barrier,primarily metabolized by CYP3A4,,,,,,
CC(=O)N1N=C(c2ccc(N)cc2)c2cc3c(cc2C[C@H]1C)OCO3 [talampanel],,,,,,,good blood-brain-barrier penetration,,approximately 4 hours,easily absorbed,approximately 2 hours,selective action,100,"dizziness, sedation, and ataxia"

# Reference: patent US20170173039A1, “COMPOSITIONS AND METHODS TO TREAT ADDICTION” (YALE UNIVERSITY, priority 2014, published 2017)
